# In paper PMC7178819, “6,7-Dimethoxy-2-phenethyl-1,2,3,4-tetrahydroisoquinoline amides and corresponding ester isosteres as multidrug resistance reversers” (Journal of Enzyme Inhibition and Medicinal Chemistry, 2020):
# Experiments:
# [1] = Stability test in human plasma (LC-MS/MS); assay type: in vitro ADME; details: human, human plasma, 1 µM, 37 °C
# Procedure: (§1) Each sample was prepared adding 10 µL of working solution 1 to 100 µL of tested matrix (PBS or human plasma) in micro centrifuge tubes. The obtained solutions correspond to 1 µM of analyte.
# After the incubation, the samples were added with 300 µL of ISTD solution and centrifuged (room temperature for 5 min at 10,000 rpm). The supernatants were transferred in auto sampler vials and dried under a gentle stream of nitrogen.
# (§2) The dried samples were dissolved in 1.0 ml of 10 mM of formic acid in mQ water: acetonitrile 80:20 solution. The obtained sample solutions were analysed by LC-MS/MS methods described in Supplementary material.
# (§3) For this purpose, a series of experiments were carried out, adding a known amount of analyte in both phosphate buffer solution (PBS) and in human plasma. The samples were analysed by LC-MS/MS method operating in Multiple Reaction Monitoring (MRM) mode[55].
# The analyte concentration (1 µM) used during the stability tests is generally smaller than the corresponding Michaelis–Menten constant (KM); therefore, the enzymatic degradation rate is described by a first-order kinetic. Then, by plotting the natural logarithm of the quantitative data versus the incubation time, a linear function can be used and its slope represents the degradation rate (k).
# P-gp [2] = target: T1, P-gp (Homo sapiens, UniProt P08183); experiment: ATP cell depletion (ATPlite assay) in MDCK-MDR1 cells; assay type: cell-based; details: Yes/No
# T1 construct: expressed in transfected cells; host or cells: MDCK-MDR1 (Madin-Darby Canine Kidney cells, gift of Prof. P. Borst, NKI-AVL)
# Procedure: The MDCK-MDR1 cells were seeded into 96-well microplate in 100 µL of complete medium at a density 20,000 cells per well. The plate was incubated overnight (O/N) in a humidified atmosphere 5% CO2 at 37 °C. The medium was removed and 100 µL of complete medium either alone or containing different concentrations (ranging from 1 to 100 µM) of test compounds was added. The plate was incubated for 2 h in a humidified 5% CO2 atmosphere at 37 °C. 50 µL of mammalian cell lysis solution was added to all wells and the plate shacked for five minutes in an orbital shaker. 50 µL of substrate solution was added to all wells and the plate shacked for five minutes in an orbital shaker. The plate was dark adapted for ten minutes and the luminescence was measured.
# (§4) The interaction potency between the designed compounds and P-gp was evaluated by measuring the transport inhibition of the pro-fluorescent probe Calcein-AM, that is a P-gp substrate, in a cell line overexpressing P-gp (MDCK-MDR1)[47]. The P-gp interacting profile was further investigated with two other assays: the Apparent Permeability (Papp) determination (BA/AB) in Caco-2 cell monolayer[48]^,[49], and the ATP cell depletion in the MDCK-MDR1 cell line[50]. Taking into account the results of the combined tests, an interacting compound can be classified as substrate or inhibitor. Papp determination measures the ratio between two fluxes: from the basolateral to apical compartments (BA, representative of passive diffusion) and from the apical to basolateral compartments (AB, representative of active transport). […] In the same manner, if (BA/AB) >2, the compound should probably be classified as a substrate. […] The selectivity of ligands 1–26 was evaluated by detecting their activity towards the other ABC transporters MRP1 and BCRP, by measuring the inhibition of the efflux of Calcein-AM (i.e., also a MRP1 substrate) in cells overexpressing MRP1 (MDCK-MRP1 cells), and the inhibition of the efflux of the fluorescent probe Hoechst 33342 (i.e. a BCRP substrate) in cells overexpressing BCRP (MDCK-BCRP cells), respectively.
# [3] = Stability test in phosphate buffer solution (PBS); assay type: physicochemical; details: 1 µM, 37 °C, up to 120 min
# Procedure: as §1
# Each set of samples was incubated in triplicate at four different times, 0, 30, 60 and 120 min at 37 °C. Therefore, the degradation profile of each analyte was represented by a batch of 12 samples (4 incubation times × 3 replicates). After the incubation, the samples were added with 300 µL of ISTD solution and centrifuged (room temperature for 5 min at 10,000 rpm). The supernatants were transferred in auto sampler vials and dried under a gentle stream of nitrogen.
# as §2
# as §3, with “Due to the presence of ester or amide groups in the structure of compounds 1–26, a study aimed to evaluate their susceptibility to spontaneous or enzymatic hydrolysis, was planned. For” for “For”, “mode[55]. […]” for “mode[55].”
# P-gp [4] = target: T1, P-gp; experiment: Inhibition of Calcein-AM transport in MDCK-MDR1 cells; assay type: cell-based; details: Calcein-AM, MDCK-MDR1 cells; mean ± SEM of two experiments
# Procedure: These experiments were carried out as previously described by Teodori et al. with minor modifications. Each cell line (30 000 cells per well) was seeded into black CulturePlate 96/wells plate with 100 µL medium and allowed to become confluent overnight. 100 µL of test compounds were solubilised in culture medium and added to monolayers, with final concentrations ranging from 1 nM to 100 µM. 96/Wells plate was incubated for 30 min in a humidified atmosphere 5% CO2 at 37 °C. Calcein-AM was added in 100 µL of Phosphate Buffered Saline (PBS) to yield a final concentration of 2.5 µM and plate was incubated for 30 min in a humidified atmosphere 5% CO2 at 37 °C. Each well was washed 3 times with ice cold PBS. Saline buffer was added to each well and the plate was read with Victor3 (PerkinElmer) at excitation and emission wavelengths of 485 and 535 nm, respectively. In these experimental conditions, Calcein cell accumulation in the absence and in the presence of tested compounds was evaluated and fluorescence basal level was estimated with untreated cells. In treated wells the increase of fluorescence with respect to basal level was measured. EC50 values were determined by fitting the fluorescence increase percentage versus log[dose].
# The interaction potency between the designed compounds and P-gp was evaluated by measuring the transport inhibition of the pro-fluorescent probe Calcein-AM, that is a P-gp substrate, in a cell line overexpressing P-gp (MDCK-MDR1)[47]. The P-gp interacting profile was further investigated with two other assays: the Apparent Permeability (Papp) determination (BA/AB) in Caco-2 cell monolayer[48]^,[49], and the ATP cell depletion in the MDCK-MDR1 cell line[50]. […] Papp determination measures the ratio between two fluxes: from the basolateral to apical compartments (BA, representative of passive diffusion) and from the apical to basolateral compartments (AB, representative of active transport). […] In the same manner, if (BA/AB) >2, the compound should probably be classified as a substrate.
# [5] = Apparent permeability (Papp) determination (BA/AB) in Caco-2 cell monolayer; assay type: in vitro ADME; details: human, Caco-2 monolayer
# Procedure: Caco-2 cells were seeded onto a Millicell® assay system (Millipore), where a cell monolayer is set in between a filter cell and a receiver plate, at a density of 10 000 cells/well[46]. The culture medium was replaced every 48 h and the cells kept for 21 days in culture. The Trans Epithelial Electrical Resistance (TEER) of the monolayers was measured daily, before and after the experiment, using an epithelial volt-ohmmeter (Millicell®-ERS). Generally, TEER values greater than 1000 Ω for a 21 days culture, are considered optimal.
# After 21 days of Caco-2 cell growth, the medium was removed from filter wells and from the receiver plate, which were filled with fresh HBSS buffer (Invitrogen). This procedure was repeated twice, and the plates were incubated at 37 °C for 30 min. After incubation time, the HBSS buffer was removed and drug solutions and reference compounds were added to the filter well at the concentration of 100 µM, while fresh HBSS was added to the receiver plate. The plates were incubated at 37 °C for 120 min. Afterwards, samples were removed from the apical (filter well) and basolateral (receiver plate) side of the monolayer to measure the permeability.
# as §4
# T1 sequence (P08183 whole entry): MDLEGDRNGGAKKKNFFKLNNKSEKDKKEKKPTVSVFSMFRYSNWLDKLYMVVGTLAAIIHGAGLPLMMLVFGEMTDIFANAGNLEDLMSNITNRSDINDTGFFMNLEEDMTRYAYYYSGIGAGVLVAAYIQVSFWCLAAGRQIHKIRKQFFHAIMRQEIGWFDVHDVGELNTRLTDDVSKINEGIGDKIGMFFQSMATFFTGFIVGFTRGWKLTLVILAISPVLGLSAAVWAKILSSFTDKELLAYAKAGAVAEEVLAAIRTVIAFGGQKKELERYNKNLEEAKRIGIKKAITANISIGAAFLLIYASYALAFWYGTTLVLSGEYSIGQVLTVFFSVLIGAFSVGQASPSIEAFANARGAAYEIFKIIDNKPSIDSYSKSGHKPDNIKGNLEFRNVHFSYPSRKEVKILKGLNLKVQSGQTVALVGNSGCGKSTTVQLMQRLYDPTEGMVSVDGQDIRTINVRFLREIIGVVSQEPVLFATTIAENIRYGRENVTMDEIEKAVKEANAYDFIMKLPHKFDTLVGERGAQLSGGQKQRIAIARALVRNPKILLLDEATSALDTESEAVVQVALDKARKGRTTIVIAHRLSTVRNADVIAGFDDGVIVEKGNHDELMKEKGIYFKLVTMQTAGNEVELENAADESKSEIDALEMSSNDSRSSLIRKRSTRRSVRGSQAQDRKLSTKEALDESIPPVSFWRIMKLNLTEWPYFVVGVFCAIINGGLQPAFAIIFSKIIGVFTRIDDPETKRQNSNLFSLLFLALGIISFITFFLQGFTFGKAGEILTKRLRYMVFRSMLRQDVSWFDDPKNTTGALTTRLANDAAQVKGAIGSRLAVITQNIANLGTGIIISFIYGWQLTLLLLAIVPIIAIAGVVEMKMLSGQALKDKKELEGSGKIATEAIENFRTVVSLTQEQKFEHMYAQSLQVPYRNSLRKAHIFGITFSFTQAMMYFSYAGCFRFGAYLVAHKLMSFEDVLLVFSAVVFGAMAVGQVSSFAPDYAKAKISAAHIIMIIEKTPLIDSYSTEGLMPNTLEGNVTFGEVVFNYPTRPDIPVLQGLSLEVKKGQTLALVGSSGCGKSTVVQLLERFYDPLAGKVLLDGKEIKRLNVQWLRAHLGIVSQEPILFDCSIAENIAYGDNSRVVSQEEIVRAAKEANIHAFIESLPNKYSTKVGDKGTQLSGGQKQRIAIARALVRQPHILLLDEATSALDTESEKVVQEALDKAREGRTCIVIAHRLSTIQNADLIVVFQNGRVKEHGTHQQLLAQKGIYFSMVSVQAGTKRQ
smiles,measurement,setting,value
"COc1cncc(C(=O)Oc2ccc(CCN3CCc4cc(OC)c(OC)cc4C3)cc2)n1 [Compound 25, 4–(2-(6,7-Dimethoxy-3,4-dihydroisoquinolin-2(1H)-yl)ethyl)phenyl 6-methoxypyrazine-2-carboxylate]",half-life at 1 µM,[1],~6 min
same,ATP cell depletion,P-gp [2],No
same,stability in PBS,[3],unmodified
same,EC50,P-gp [4],220 ± 40 nM
same,"efflux ratio at 120 min, 100 µM",[5],4.7
